Measurements from the supplement of paper PMC10307832.

Key:
Experiment in all cases: relative viability (nuclei count vs DMSO), 5 days (fraction); higher = more cells survive
[1] = compound: CCN(CCO)CCCC(C)Nc1ccnc2cc(Cl)ccc12 [Hydroxychloroquine] + Cc1nc(Nc2ncc(C(=O)Nc3c(C)cccc3Cl)s2)cc(N2CCN(CCO)CC2)n1 [Dasatinib] (partner 0.075 µM)
Outline: (§1)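 Cells from lung cancer lines were seeded into 1536-well plates and, one day later, dosed by pin tool. Treatments were either a single drug or a fixed dose of an anchor drug with five library-drug doses (not always all listed) in √10 steps. After 5 days, nuclei were stained in a one-step fixation (final 0.05% Triton X-100, 1% formaldehyde, 1 ug/ml Hoechst) and counted on 4× images, and relative viability is the treated-to-vehicle nuclei ratio, as the median of duplicate plates.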

[2] = compound: CCN(CCO)CCCC(C)Nc1ccnc2cc(Cl)ccc12 [Hydroxychloroquine] + Nc1ncn([C@H]2C[C@H](O)[C@@H](CO)O2)c(=O)n1 [Decitabine] (partner 2 µM)
Outline: as §1

[3] = compound: CCN(CCO)CCCC(C)Nc1ccnc2cc(Cl)ccc12 [Hydroxychloroquine] + COc1cc2c(Oc3ccc(NC(=O)C4(C(=O)Nc5ccc(F)cc5)CC4)cc3F)ccnc2cc1OCCCN1CCOCC1 [Foretinib] (partner 0.25 µM)
Outline: as §1

[4] = compound: CCN(CCO)CCCC(C)Nc1ccnc2cc(Cl)ccc12 [Hydroxychloroquine] + CCNC(=O)c1noc(-c2cc(C(C)C)c(O)cc2O)c1-c1ccc(CN2CCOCC2)cc1 [Luminespib] (partner 0.01 µM)
Outline: as §1

Cell Line	relative viability ([1]; first compound 0.5 µM)	relative viability ([1]; first compound 1.581 µM)	relative viability ([1]; first compound 5 µM)	relative viability ([1]; first compound 15.81 µM)	relative viability ([1]; first compound 50 µM)	relative viability ([2]; first compound 0.5 µM)	relative viability ([2]; first compound 1.581 µM)	relative viability ([2]; first compound 5 µM)	relative viability ([2]; first compound 15.81 µM)	relative viability ([2]; first compound 50 µM)	relative viability ([3]; first compound 0.5 µM)	relative viability ([3]; first compound 1.581 µM)	relative viability ([3]; first compound 5 µM)	relative viability ([3]; first compound 15.81 µM)	relative viability ([3]; first compound 50 µM)	relative viability ([4]; first compound 0.5 µM)	relative viability ([4]; first compound 1.581 µM)	relative viability ([4]; first compound 5 µM)	relative viability ([4]; first compound 15.81 µM)	relative viability ([4]; first compound 50 µM)
HCC-366	0.739	0.731	0.624	0.768	0.719	0.314	0.348	0.315	0.316	0.34	0.938	0.891	0.902	0.945	0.923	–	–	–	–	–
HCC-827	0.306	0.378	0.312	0.388	0.314	0.323	0.302	0.317	0.301	0.279	1.13	0.956	1.05	1.2	1.08	0.781	0.629	0.686	0.522	0.85
HOP-62	0.57	0.601	0.717	0.636	0.58	0.209	0.239	0.206	0.207	0.206	1.15	1.24	1.14	1.27	1.23	1	0.987	1.01	1.09	1
IA-LM	–	–	–	–	–	–	–	–	–	–	1.15	1.31	1.12	1.26	1.27	–	–	–	–	–
LC-2-ad	0.56	0.684	0.603	0.639	0.595	0.732	0.777	0.776	0.744	0.854	0.956	0.895	0.895	0.921	1.05	1.19	1.02	0.906	1.01	0.969
LCLC-97TM1	0.866	0.896	0.903	0.841	0.808	0.217	0.247	0.276	0.274	0.189	0.989	0.934	0.979	0.983	1.01	0.876	0.833	0.787	0.768	0.867
LCLC-103H	0.367	0.405	0.523	0.547	0.543	0.699	0.751	0.727	0.736	0.767	0.776	0.707	0.848	0.893	0.887	0.983	0.921	1.05	1.11	1.1
LK-2	0.258	0.261	–	0.294	0.357	0.308	0.297	0.36	0.268	0.284	1.31	1.41	–	1.28	0.955	0.192	0.171	–	0.193	0.224
LOU-NH91	0.559	0.453	0.588	0.581	0.593	0.761	0.732	0.833	0.83	0.824	0.921	0.831	0.949	0.94	0.914	0.369	0.313	0.307	0.345	0.371
LU99A	0.47	0.502	0.714	0.613	0.612	0.864	0.795	0.877	1.01	1.01	0.914	0.724	0.786	0.789	0.861	0.279	0.248	0.265	0.226	0.268
LXF-289	0.234	0.212	0.217	0.202	0.195	0.411	0.395	0.338	0.366	0.357	0.96	0.959	0.969	1.03	1.08	0.745	0.824	0.713	0.576	0.721
NCI-H23	0.87	0.683	0.879	0.807	0.795	0.321	0.294	0.288	0.288	0.305	1.04	0.968	0.979	0.99	0.903	0.23	0.218	0.22	0.215	0.216
NCI-H322M	0.256	0.248	0.258	0.253	0.263	0.66	0.698	0.732	0.665	0.637	1	0.937	0.934	1.03	0.935	0.758	0.803	0.902	0.777	0.798
NCI-H358	0.177	0.131	0.139	0.144	0.155	0.208	0.203	0.217	0.21	0.201	0.639	0.628	0.643	0.593	0.827	0.286	0.293	0.282	0.283	0.388
NCI-H522	0.933	0.942	0.755	1.03	0.913	0.689	–	0.566	0.676	0.59	–	–	–	–	–	1.17	1.12	1.08	1.31	1.32
NCI-H1299	–	–	–	–	–	–	–	–	–	–	1.09	1.05	1.14	1.12	1.06	–	–	–	–	–
NCI-H1563	0.509	0.501	0.449	0.475	0.421	–	–	–	–	–	0.886	0.804	0.88	0.825	0.965	0.521	0.579	0.488	0.567	0.496
NCI-H1648	–	–	–	–	–	0.51	0.447	0.512	0.518	0.484	–	–	–	–	–	–	–	–	–	–
NCI-H1703	–	–	–	–	–	–	–	–	–	–	0.402	0.443	0.313	0.347	0.379	–	–	–	–	–
NCI-H1792	0.922	0.936	0.759	0.825	0.711	0.56	0.521	0.563	0.461	0.583	–	–	–	–	–	0.434	0.503	0.472	0.698	0.442
NCI-H2228	0.53	0.456	0.516	0.524	0.506	–	–	–	–	–	0.809	0.862	0.839	0.969	0.834	0.24	0.122	0.162	0.185	0.112
